“Also recorded” adds a separate entry of the source.
Columns and labels:
[1] = tested on: DSS-induced colitis in mice; test: DSS-induced colitis in mice: weight, food and water intake, modified DAI, colon length; type: in vivo, mouse
Excerpt: Six to eight-week-old male C57 black/6J mice (Charles River Laboratories, Inc., Wilmington, Mass.) were randomly allocated into one of two groups of 24 mice each. Food and water were provided ad libitum. The first group (Normal) received normal drinking water and the second group (DSS) received water containing 2% dextran sulfate sodium having a molecular weight of 40,000 (TdB Consultancy AB, Uppsala, Sweden) for six days followed by normal water for three additional days and necropsy on day 9 (FIG. 5A). Each mouse was housed in an individual cage for accurate measurement of food and water intake. Animal weight, water intake, and food consumption were measured daily. Bedding was changed and fresh stool pellets were collected daily and analyzed for occult blood. The colitis disease activity index (DAI) was calculated for each mouse according to the system established by Murthy and colleagues. See, Murthy, et al., “Treatment of dextran sulfate sodium-induced murine colitis by intracolonic cyclosporin,” Dig. Dis. Sci. 38, 1722-34 (1993). Overt changes in stool consistency were rarely discerned so a modified DAI was calculated based on percent weight loss and stool hemoccult or presence of gross bleeding.
(§1) Mice in each group (Normal or DSS) were randomly subdivided into three treatment groups of eight mice each. After 72 hours, mice were treated once daily for six consecutive days with a subcutaneous injection (0.1 mL) of one of the following: saline (control), 6.3 μg/kg naltrexone (“NTX”), or 350 μg/kg NTX (Sigma Chemicals, St. Louis, Mo.). On day 9, all animals were necropsied and their colons resected.
(§2) At necropsy, the entire colon was excised, measured in length, and bisected into proximal and distal portions. The proximal and distal colons were additionally divided for RNA extraction and histology. Each histology specimen was fixed in 10% neutral buffered formalin, paraffin embedded and sectioned for hematoxylin and eosin (“H&E”) staining. Specimens were examined microscopically and scored based upon the criteria established by Williams et al. by an investigator blinded to the treatment groups. Williams, et al., “Enhanced survival and mucosal repair after dextran sodium sulfate-induced colitis in transgenic mice that overexpress growth hormone,” Gastroenterology 120, 925-37 (2001). Briefly, a representative longitudinal section from each mouse was scored at six random fields for inflammation severity, extent of inflammation (mucosa, submucosa, transmural) and crypt damage. Each of these scores was weighted to reflect the percent involvement of the overall section and the weighted scores from each of the six fields were averaged to achieve an overall inflammation score for each mouse.
(§3) Results were calculated as mean±SEM. Statistical comparisons were performed between NTX treatment sub-groups and their corresponding saline control, as well as between the Normal and DSS groups, comparing corresponding treatments. Parametric analyses were performed (Minitab 13, State College, Pa.) using a modified Bonferroni method to correct for multiple comparisons to controls.

[2] = tested on: DSS-induced colitis in mice; test: DSS-induced colitis in mice: histological inflammation score of distal colon (H&E); type: in vivo, mouse
Protocol: as §1, §2, §3

[3] = tested on: mucin (Muc2), trefoil factor (TFF3), TGF-beta binding protein mRNA; test: Distal colon RNA of DSS mice, microarray and quantitative RT-PCR; type: in vivo, mouse
Excerpt: (§4) Total RNA was extracted from the distal colon samples (using TRIZOL® available from Invitrogen Corp., Carlsbad, Calif.; TRIZOL® is a trademark of Molecular Research Center, Inc. of Cincinnati, Ohio) and subjected to microarray analysis using a 10K mouse microarray (MWG Biotech, High Point, N.C.) and a Packard Biosciences ScanArray 4000KL machine (Functional Genomics Core Facility of the Section of Research Resources, Penn State College of Medicine). To minimize the impact of variation among animals, RNA from individual mice was pooled within each treatment group. […] RNA from Normal+saline, DSS+6.3 μg/kg NTX, and DSS+350 μg/kg NTX were each tested versus DSS+saline. Data were analyzed with GenSpring 6 software (Agilent Technologies, Palo Alto, Calif.).
RNA (18S and 28S bands) was visualized using the Agilent 2100 Bioanalyzer (Agilent Technologies, Santa Clara, Calif.) and concentrations were adjusted. […] The concentration and quality of resulting cDNA was quantified and analyzed using the Agilent 2100 Bioanalyzer or spectroscopically with the NanoDrop ND-1000 (NanoDrop Technologies, Wilmington, Del.). […] PCR amplification and analysis were performed with the Applied Biosystems Sequence Detection System 7300 using the Relative Quantification (ddCt). […]

IL-12 mRNA = test: Distal colon RNA of DSS mice, real-time RT-PCR; type: in vivo, mouse; conditions: DSS mice treated with naltrexone
Excerpt: as §4
(§5) RNA (18S and 28S bands) was visualized using the Agilent 2100 Bioanalyzer (Agilent Technologies, Santa Clara, Calif.) and concentrations were adjusted. First strand cDNA was then produced from 1.0 μg of total RNA using random hexamer primers and the SuperScript III Reverse Transcription kit (Invitrogen). The concentration and quality of resulting cDNA was quantified and analyzed using the Agilent 2100 Bioanalyzer or spectroscopically with the NanoDrop ND-1000 (NanoDrop Technologies, Wilmington, Del.). Samples were standardized to 30 ng/μL and 60 ng of cDNA per sample was then used as a template for real-time PCR using a SYBR Green Master Mix (Qiagen, Valencia, Calif.). 18S rRNA primers (Eurogentec, San Diego, Calif.) and the following gene-specific primer sequences obtained from PrimerBank (pga.mgh.harvard.edu/primerbank) were used: beta-actin, 6671509a; IL-5, 6754336a; IL-6, 13642311a; IL-12, 6680395a; STAT3, 13277852a; STAT4, 6755670a; Muc2, 3452503a2; TFF3, 6755773a1; Palladin, 9828173a1; and TGF-beta BP, 7305243a1. To exclude the possibility of genomic DNA contamination, control reactions with no cDNA template were also performed for each gene-specific primer set. PCR amplification and analysis were performed with the Applied Biosystems Sequence Detection System 7300 using the Relative Quantification (ddCt). Amplification data for the genes of interest were normalized to 18S within each individual reaction. Triplicate reactions were performed and the resultant data from multiple runs were averaged.

IL-5 mRNA = test: Distal colon RNA of DSS mice, real-time RT-PCR; type: in vivo, mouse; conditions: DSS+NTX
Excerpt: as §4, §5

IL-6 mRNA = test: Distal colon RNA of DSS mice, real-time RT-PCR; type: in vivo, mouse; conditions: DSS mice treated with naltrexone
Excerpt: as §4, §5

STAT3 mRNA = test: Distal colon RNA of DSS mice, real-time RT-PCR; type: in vivo, mouse
Excerpt: as §4, §5

STAT4 mRNA = test: Distal colon RNA of DSS mice, real-time RT-PCR; type: in vivo, mouse
Excerpt: as §4, §5

beta-actin mRNA = test: Distal colon RNA of DSS mice, real-time RT-PCR; type: in vivo, mouse; conditions: DSS+NTX
Excerpt: as §4, §5

[4] = higher doses, i.e. 50 mg; cited from earlier work
[5] = DSS mice treated with naltrexone

O=C1CC[C@@]2(O)[C@H]3Cc4ccc(O)c5c4[C@@]2(CCN3CC2CC2)[C@H]1O5 [naltrexone]
Colon length ([1]; DSS mice treated with naltrexone, still shorter than in untreated animals): more normal colon lengths | DAI scores / disease symptoms compared to DSS+saline (in words) ([1]; DSS mice, 350 μg/kg): lower DAI scores; also recorded: decreased | Weight loss compared to DSS mice treated with saline ([1]; DSS mice, 350 μg/kg): less weight loss; also recorded: decreased | Weight loss compared to DSS+saline ([1]; DSS mice, naltrexone s.c. once daily from 72 hours): tended to be less | DAI scores of DSS mice (in words) ([1]; DSS mice, naltrexone treatment): A reduction in these DAI scores was evident | Weight loss compared to DSS+saline, statistical significance ([1]; DSS+6.3 μg/kg NTX, p=0.02): only reached statistical significance on day 6 | Modified DAI scores ([1]; Normal mice (no DSS), NTX-treated): no evidence of colitis | DAI scores lower than DSS+saline mice ([1]; day 6, DSS+350 μg/kg NTX, p=0.015): 55% | Weight at necropsy among the three DSS sub-groups ([1]; day 9, off DSS for three days): no significant difference in weight | Food consumption ([1]; naltrexone treatment alone (Normal mice, no DSS)): no effect on food consumption | Inflammation by histology compared to DSS+saline (in words) ([2]; DSS mice, 350 μg/kg): less inflammation; also recorded: improved | Crypt architecture and invading leukocytes compared to DSS+saline ([2]; DSS+350 μg/kg NTX): improved crypt architecture and fewer invading leukocytes | Inflammation scores of distal colon compared to DSS+saline ([2]; DSS+NTX 6.3 and 350 μg/kg, trend did not reach statistical significance): dose-dependent decrease in inflammation and damage | Colonic inflammation, histology, Normal+saline versus Normal+NTX ([2]; Normal mice (no DSS)): No differences in colonic inflammation | Mucosal integrity of the colon ([2]; naltrexone alone (no DSS)): did not alter the mucosal integrity of the colon | Levels of Muc2, TFF3 and TGF-beta binding protein mRNAs, microarray ([3]; DSS animals, either 6.3 or 350 μg/kg): restored the levels of these mRNAs in DSS animals to varying extents | Levels of Muc2, TFF3 and TGF-beta binding protein mRNAs, quantitative RT-PCR, versus Normal animals ([3]; DSS+NTX animals): not significantly different from Normal animals | IL-12 mRNA level versus colitis-free mice (IL-12 mRNA): decreased to levels near or equal to that in mice without colitis; also recorded: restored mRNA expression to that seen in the colitis-free, Normal mice | IL-12 mRNA level versus DSS+saline (IL-12 mRNA; DSS+saline increased three-fold): greatly reduced | Expression of IL-5 (IL-5 mRNA): not significantly changed | IL-6 mRNA level versus colitis-free mice (IL-6 mRNA): decreased to levels near or equal to that in mice without colitis; also recorded: not completely restored to those seen in the colitis-free animals | IL-6 mRNA level versus DSS+saline (IL-6 mRNA; DSS+saline increased 73-fold): greatly reduced | STAT3 mRNA level versus colitis-free Normal controls (STAT3 mRNA; [5]): statistically indistinguishable from colitis-free, Normal controls | STAT3 mRNA level, decrease after naltrexone treatment (STAT3 mRNA; DSS mice, DSS+saline increased 2.20-fold): greater than 50% | DSS-induced up-regulation of STAT3 expression (in words) (STAT3 mRNA; DSS-treated mice): reversed | STAT4 mRNA level versus Normal mice (STAT4 mRNA; [5]): still slightly higher than in the Normal mice | STAT4 mRNA level, decrease after naltrexone treatment (STAT4 mRNA; DSS mice, DSS+saline increased 8.03-fold): greater than 50% | DSS-induced up-regulation of STAT4 expression (in words) (STAT4 mRNA; DSS-treated mice): reversed | Expression of beta-actin (beta-actin mRNA): not significantly changed | Liver transaminases [4]: elevate liver transaminases

From US7879870B2, “Treatment of inflammatory and ulcerative diseases of the bowel with opioid antagonists” (priority 2006, dated 2011)
